Results taken from the NIST ThermoML archive (doi:10.1021/je400970y).

Details: Liquid, Closed cell (Static) method

C=C(F)C(F)(F)F [2,3,3,3-tetrafluoro-1-propene]
Details | vapor or sublimation pressure [kPa]
248.17 K | 123.1
251.18 K | 138.8
254.21 K | 156.9
258.2 K | 184.3
260.18 K | 198.3
262.18 K | 213.8
264.2 K | 229.9
266.25 K | 248.1
270.26 K | 286
271.16 K | 295.3
273.21 K | 316.5
275.22 K | 338.2
277.22 K | 361.5
279.14 K | 385.1
281.23 K | 411.4
285.18 K | 466.2
287.22 K | 496.4
289.22 K | 526.7
291.22 K | 558.8
293.25 K | 593.4
295.25 K | 627.9
297.55 K | 672.2
299.19 K | 703
301.32 K | 746.2
303.25 K | 786.5
305.11 K | 825.8
306.31 K | 852.9
309.51 K | 927.9
311.49 K | 976.6
313.43 K | 1026.2
315.55 K | 1082.8
317.23 K | 1128.4
319.14 K | 1182.9
321.02 K | 1237.8
323.79 K | 1322.3
325.56 K | 1380
326.82 K | 1420.8
328.86 K | 1490.2
330.87 K | 1560.1
332.97 K | 1635.8
334.99 K | 1711.2
336.99 K | 1788.7
338.97 K | 1868.1
341.06 K | 1955.5
343.04 K | 2040.1
345.05 K | 2129.1
347.06 K | 2221.2
349.05 K | 2315.9
351.03 K | 2412.1
353.08 K | 2516.4
355.03 K | 2618.5
357.23 K | 2738.3
359.34 K | 2856.6
361.05 K | 2955.2

CC(F)(Cl)C(F)(F)F (stereo not given) [2-chloro-1,1,1,2-tetrafluoropropane]
Details | vapor or sublimation pressure [kPa]
268.19 K | 49.7
270.19 K | 54.4
273.18 K | 60.5
275.18 K | 66.4
278.16 K | 74.3
281.15 K | 83.9
283.12 K | 88.9
286.13 K | 100.5
288.11 K | 106.5
290.12 K | 116
292.13 K | 124.6
295.09 K | 138.2
298.12 K | 151.8
300.09 K | 163.5
302.11 K | 175.3
304.25 K | 185.9
307.02 K | 203.2
308.9 K | 215.2
310.68 K | 227.6
313.35 K | 247.9
315.28 K | 261.8
318.34 K | 286.5
320.84 K | 307.9
324.02 K | 334.9
325.63 K | 351.9
328.81 K | 382.6
330.46 K | 401.6
333.63 K | 435.9
335.25 K | 456.6
338.51 K | 495.5
339.67 K | 510.3
341.68 K | 536.4
343.28 K | 559.6
345.27 K | 588.1
347.07 K | 615.8
349.07 K | 645.9
